The source of these data is EP0974351A2, “Medicament for preventing and treating gastrointestinal damage” (JOUVEINAL, priority 1998, dated 2000).

The test has as its system handling responses following withdrawal of chronic ethanol treatment. In words: Handling-induced behavior after ethanol withdrawal in mice. Type of test: in vivo, Male albino mice of the outbred TO strain. As to the method:
Male albino mice of the outbred TO strain (Bantin and Kingman, UK) were used in all studies. The weight ranged from 25 to 35 g, with no more than a 5 g range in any single experiment. The mice were housed, eight per cage, at 21°C ± 1°C, with 55 ± 10% relative humidity, and a 12-hour light/dark cycle with the light phase between 09:00 to 21:00. All mice received ad libitum access to tap water and standard laboratory chow (RM-1, Special Diet Services, UK) until their use in experiments or until their diet was replaced with a liquid diet.
Ethanol was administered in a liquid diet schedule. All mice received control diet for an initial 2-day period. Ethanol treated mice then received a diet containing 3.5% (v/v) ethanol/water for 2 days, followed by a diet containing 7% ethanol for a further 5 days. The average intake was 22 to 30 g/kg/day. Control groups were pair-fed a control diet, balanced isocalorifically to match the ethanol containing diet. There were no differences in the weights of the ethanol-treated and control mice at the end of the treatment periods. When mice were withdrawn from the ethanol (between 07:00 AM and 09:00 AM), they were provided with tap water until their use in experiments.
Gabapentin was dissolved in saline, the solution being made freshly each testing day. Intraperitoneal (i.p.) injections of either gabapentin, 10 mL/kg, or saline, were given immediately on withdrawal from the ethanol treatment, in the studies on the handling responses and 2 hours prior to measurement of audiogenic seizures. In the experiments using the elevated plus maze, gabapentin or saline was injected i.p. at 8 hours after the removal of the ethanol diet, and the mice placed on the plus maze 60 minutes after the injections. In the studies on motor co-ordination (ataxia) and on locomotor activity, gabapentin or saline was injected to ethanol-naive chow fed mice immediately before testing. Measurements were then made for 60 minutes for the ataxia study, and for 30 minutes in the case of the locomotor activity.
Following withdrawal from the ethanol treatment at 09:00 AM, ratings of handling-induced behavior were assessed by the same experimenter, on the same mice, every hour for a period of 12 hours after withdrawal from ethanol.
Each mouse was lifted gently by the tail and held for 3 seconds, 30 cm under an "Anglepoise lamp" with a 60-watt bulb. The animal was gently rotated and its ensuing behavior rated on a scale of 1 to 5 according to the criteria in Table 2. Groups of 15 mice were used in each of the treatment groups, and the data were calculated as medians with interquartile ranges. The data were also expressed as the area under the curve at 4 and 12 hours from the withdrawal of the ethanol treatment.
The results of the handling response ratings were compared by nonparametric two-way analysis of variance, designed for repeat measures on the same animal. The results of the area under the curve calculations were compared by the Mann-Whitney U-test. The convulsion incidence was analyzed by Fisher's exact probability test. The measurements from the elevated plus maze were subjected to one-way analysis of variance, followed by a Bonuferroni multiple comparison test, comparing all groups to the control group which received saline injections, and also both ethanol treated groups which received gabapentin to the ethanol treated group which received saline. The ataxia measurements were analyzed by the Mann-Whitney U-test and the locomotor activity by Student's t-test.

In the case of `NCC1(CC(=O)O)CCCCC1` [Gabapentin, 1-(aminomethyl)-cyclohexane acetic acid], the “area under the handling curve for the first 4 hours” value is, setting by setting: (gabapentin 20 mg/kg i.p., p <0.05) “significant effects”; (gabapentin 50 mg/kg i.p., p <0.05) “significant effects”; (gabapentin 100 mg/kg i.p., p <0.01) “significant effects”. For the same compound, the “duration of marked reduction in handling scores” value (gabapentin 100 mg/kg i.p.) is recorded as “around 4 hours”. The “ratings of behavior in response to gentle handling over the 12-hour testing period” value (gabapentin 100 mg/kg i.p. on withdrawal from ethanol, p <0.001) is recorded as “significantly reduced”. Further, the “ratings of behavior in response to gentle handling over the 12-hour period of measurement” value (lower doses of gabapentin (below 100 mg/kg) i.p. on withdrawal from ethanol) is “not significant”.
